According to patent US20250282785A1, “PYRROLIDINONE DERIVATIVES AS INHIBITORS OF NF KAPPA B INDUCING KINASE” (priority 2022, published 2025):

Legend:
[1] = biological target: Recombinant Human NF-Kappab-Inducing Kinase (NIK/MAP3K14) (Homo sapiens, UniProt Q99558); test: Inhibition of auto-phosphorylation of recombinant human NIK/MAP3K14 (AlphaScreen); type: biochemical; conditions: NIK/MAP3K14 auto-phosphorylation, 5 microM ATP, 1 nM enzyme, 2 h at 25° C.; average of values; read-out: Assay 1 IC50
Procedure: Biological Assay 1: Inhibition of Auto-Phosphorylation of Recombinant Human NF-Kappab-Inducing Kinase (NIK/MAP3K14) Activity (AlphaScreen®)
NIK/MAP3K14 auto-phosphorylation activity was measured using the AlphaScreen® ((αscreen) format (Perkin ElmeR). All compounds tested were dissolved in dimethyl sulfoxide (DMSO) and further dilutions were made in assay buffer. Final DMSO concentration was 0.7% (v/v) in assays. Assay buffer was 50 mM Tris pH 7.5 containing 1 mM EGTA (ethylene glycol tetraacetic acid), 1 mM DTT (dithiothreitol), 0.1 mM Na3VO4, 5 mM MgCl2, 0.01% Tween® 20. Assays were carried out in 384 well Proxiplates (Perkin ElmeR). Incubations consisted of compound, 5 microM Adenosine-5′-triphosphate (ATP), and 1 nM NIK/MAP3K14. Incubations were initiated by addition of GST-tagged NIK/MAP3K14 enzyme, carried out for 2 h at 25° C. and terminated by addition of stop buffer containing anti-phospho-IKK Ser176/180 antibody. Protein A Acceptor and Glutathione-donor beads were added before reading using an EnVision® Multilabel Plate Reader (Perkin ElmeR). Signal obtained in the wells was normalized using high (full enzyme activity, 0.7% DMSO) and low controls (no enzyme activity, 0.7% DMSO, no ATP). IC50's were determined by fitting a sigmoidal curve to % inhibition of control versus Log10 compound concentration.

[2] = system: p-IKKα levels in L363 (NIK translocated multiple myeloma) cells; test: Effect of compounds on p-IKKα levels in L363 cells (AlphaLISA SureFire Ultra); type: cell-based; conditions: Homo sapiens, L-363; L363 cells, BAFF stimulated, MG132, 6 h; average of values; read-out: Assay 2 IC50
Procedure: Biological Assay 2: Effect of Compounds on p-IKKα Levels in L363 (NIK Translocated Multiple Myeloma) Cells
All compounds tested were dissolved and serially diluted in DMSO, 1:3 dilution for 11 points in an Echo compatible plate. 100% DMSO is added to columns 12 and 24 of the plate to serve as high and low signal controls. This compound plate was used to spot 20 nl of compound or DMSO into a Greiner 384 well TC plate (781080). Final DMSO concentration was […] (v/v) in cell assays. Human L363 cells (ATCC) were cultured in RPMI 1640 medium supplemented with GlutaMax, non-essential amino acids, sodium pyruvate and 10% fetal bovine serum. Cells were routinely maintained at densities of 0.2×10^6 cells per ml −2×10^6 cells per ml at 37° C. in a humidified 5% CO2 atmosphere incubator. Cells were passaged twice a week splitting back to obtain the low density. The day before the assay, cells were washed twice in HBSS, resuspended in DMEM+0.5% IgG and protease free BSA (Jackson Immuno Research Laboratories), +/−250 ng/ml recombinant human B-cell activating factor (BAFF/BLyS/TNFSF13B) and incubated overnight at 37° C. in a humidified 5% CO2 atmosphere (bulk stimulation with or without BAFF). The next day, cell concentration was adjusted to 1×10^7 cells/ml in DMEM+/−250 ng/ml BAFF+/−10 uM MG132 and plated at 10 ul/well into compound or DMSO spotted 384 well TC plates. Seeded cells were incubated at 37° C. in a humidified 5% CO2 atmosphere for 6 h. After 6 h, plates were removed from the incubator and cell lysis was achieved by the addition of 2.5 μl 5× lysis buffer containing protease and phosphatase inhibitors, followed by shaking on a plate shaker at room temperature for 15 min. At the end of this incubation, lysed cells were sequentially treated and incubated with acceptor and donor bead mixes according to the manufacturer's protocol for a 1 plate/2-incubation suspension cell assay (AlphaLISA SureFire Ultra p-IKKα (Ser 176/180) Assay Kit (Perkin ElmeR). Plates were read using an EnVision® Multilabel Plate Reader (Perkin ElmeR). Within an experiment, a concentration response curve for each compound was run in duplicate. Signal obtained in the test wells was normalized using high signal (BAFF stimulated cells, DMSO, MG132) and low signal (unstimulated cells, DMSO) controls. To determine the IC50, a sigmoidal curve was fitted to the plot of % inhibition versus Log10 compound concentration.

Sequence of Recombinant Human NF-Kappab-Inducing Kinase (NIK/MAP3K14) (Q99558 whole entry): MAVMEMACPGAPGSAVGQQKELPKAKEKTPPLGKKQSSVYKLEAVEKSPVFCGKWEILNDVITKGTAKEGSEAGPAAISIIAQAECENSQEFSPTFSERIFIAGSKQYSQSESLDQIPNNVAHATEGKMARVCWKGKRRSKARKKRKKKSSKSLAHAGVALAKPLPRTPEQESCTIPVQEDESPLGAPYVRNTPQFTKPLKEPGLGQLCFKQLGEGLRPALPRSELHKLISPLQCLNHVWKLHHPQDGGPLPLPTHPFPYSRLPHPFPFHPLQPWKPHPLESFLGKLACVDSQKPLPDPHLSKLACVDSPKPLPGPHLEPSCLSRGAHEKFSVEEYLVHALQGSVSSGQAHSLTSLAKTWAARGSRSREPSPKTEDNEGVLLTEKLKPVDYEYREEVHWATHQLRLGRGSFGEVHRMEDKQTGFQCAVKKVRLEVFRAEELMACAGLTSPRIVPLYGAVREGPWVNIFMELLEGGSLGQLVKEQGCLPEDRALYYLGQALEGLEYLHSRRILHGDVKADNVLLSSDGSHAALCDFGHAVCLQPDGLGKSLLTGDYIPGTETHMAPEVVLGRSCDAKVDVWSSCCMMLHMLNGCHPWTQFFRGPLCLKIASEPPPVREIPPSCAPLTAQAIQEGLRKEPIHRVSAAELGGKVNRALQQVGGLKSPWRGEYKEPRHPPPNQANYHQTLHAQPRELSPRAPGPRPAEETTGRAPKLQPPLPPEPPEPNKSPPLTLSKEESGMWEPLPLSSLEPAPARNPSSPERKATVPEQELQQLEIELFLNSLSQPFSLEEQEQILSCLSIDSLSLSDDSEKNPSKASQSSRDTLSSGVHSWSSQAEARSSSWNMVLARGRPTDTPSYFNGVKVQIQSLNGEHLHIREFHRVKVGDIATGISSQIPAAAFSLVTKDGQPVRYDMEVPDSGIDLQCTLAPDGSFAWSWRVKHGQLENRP

| Structure (SMILES) | IC50 [1] [nM] | IC50 [2] [nM] |
| --- | --- | --- |
| Cc1nc(N)c2nc(-c3cccc(-c4cc([C@]5(O)CCN(C)C5=O)no4)c3)ccc2n1 [Example 3, (R)-3-(5-(3-(4-Amino-2-methylpyrido[3,2-d]pyrimidin-6-yl)phenyl)isoxazol-3-yl)-3-hydroxy-1-methylpyrrolidin-2-one] | < 100 | > 501 |
| CN1CC[C@@](O)(c2cc(-c3cccc(-c4ccc5[nH]nc(N)c5n4)c3)no2)C1=O [Example 4, (R)-3-(3-(3-(3-Amino-1H-pyrazolo[4,3-b]pyridin-5-yl)phenyl)isoxazol-5-yl)-3-hydroxy-1-methylpyrrolidin-2-one] | < 100 | > 501 |
| CN1CC[C@@](O)(c2cc(-c3cccc(-c4ccc5c(n4)c(N)nn5C)c3)no2)C1=O [Example 5, (R)-3-(3-(3-(3-Amino-1-methyl-1H-pyrazolo[4,3-b]pyridin-5-yl)phenyl)isoxazol-5-yl)-3-hydroxy-1-methylpyrrolidin-2-one] | 100 to 500 | > 501 |
| CN1CC[C@@](O)(c2cc(-c3cccc(-c4ccc(N)c(C(N)=O)n4)c3)no2)C1=O [Example 7, (R)-3-Amino-6-(3-(5-(3-hydroxy-1-methyl-2-oxopyrrolidin-3-yl)isoxazol-3-yl)phenyl)picolinamide] | < 100 | < 100 |
| COc1cc(C(N)=O)nc(-c2cccc(-c3cc([C@]4(O)CCN(C)C4=O)on3)c2)c1 [Example 8, (R)-6-(3-(5-(3-Hydroxy-1-methyl-2-oxopyrrolidin-3-yl)isoxazol-3-yl)phenyl)-4-methoxypicolinamide] | < 100 | 100 to 500 |
| CN1CC[C@@](O)(c2cc(-c3cccc(-c4ncc5ccnc(N)c5n4)c3)no2)C1=O [Example 10, (R)-3-(3-(3-(8-Aminopyrido[3,4-d]pyrimidin-2-yl)phenyl)isoxazol-5-yl)-3-hydroxy-1-methylpyrrolidin-2-one] | < 100 | > 501 |
| CN1CC[C@@](O)(c2cc(-c3cccc(-c4ccc5ncnc(N6CCC6)c5n4)c3)no2)C1=O [Example 11, (R)-3-(3-(3-(4-(Azetidin-1-yl)pyrido[3,2-d]pyrimidin-6-yl)phenyl)isoxazol-5-yl)-3-hydroxy-1-methylpyrrolidin-2-one] | < 100 | > 501 |
| Cc1ccc(-c2cc([C@]3(O)CCN(C)C3=O)on2)cc1-c1nc2c(N)ncnc2s1 [Example 12, (R)-3-(3-(3-(7-Aminothiazolo[5,4-d]pyrimidin-2-yl)-4-methylphenyl)isoxazol-5-yl)-3-hydroxy-1-methylpyrrolidin-2-one] | < 100 | > 501 |
| CN1CC[C@@](O)(c2cc(-c3cccc(-c4nc5c(N)ncnc5s4)c3)no2)C1=O [Example 13, (R)-3-(3-(3-(7-Aminothiazolo[5,4-d]pyrimidin-2-yl)phenyl)isoxazol-5-yl)-3-hydroxy-1-methylpyrrolidin-2-one] | < 100 | > 501 |
| CN1CC[C@@](O)(c2cn(-c3cccc(-c4cccc(C(N)=O)n4)c3)nn2)C1=O [Example 14, (R)-6-(3-(4-(3-Hydroxy-1-methyl-2-oxopyrrolidin-3-yl)-1H-1,2,3-triazol-1-yl)phenyl)picolinamide] | < 100 | > 501 |
| CN1CC[C@@](O)(c2cn(-c3cccc(-c4nc(C(N)=O)n5ccccc45)c3)nn2)C1=O [Example 15, (R)-1-(3-(4-(3-Hydroxy-1-methyl-2-oxopyrrolidin-3-yl)-1H-1,2,3-triazol-1-yl)phenyl)imidazo[1,5-a]pyridine-3-carboxamide] | < 100 | < 100 |
| [2H]c1nc(N)c2nc(-c3cccc(-c4cc([C@]5(O)CCN(C)C5=O)no4)c3)ccc2n1 [Example 16, (R)-3-(5-(3-(4-Aminopyrido[3,2-d]pyrimidin-6-yl-2-d)phenyl)isoxazol-3-yl)-3-hydroxy-1-methylpyrrolidin-2-one] | < 100 | 100 to 500 |
